Data reported in EP4731189B1, “SOLID ORAL FORMULATION OF PUDAFENSINE” (Initiator Pharma A/S, priority 2023, dated 2024).
In brackets after ≈: the same amount, converted by molar mass.

What was measured:
[1] = tested on: male subjects with erectile dysfunction (ED); experiment: Phase IIb study in erectile dysfunction, IIEF-15 questionnaire efficacy; format: in vivo, humans
From the text: (§1) The study investigated the effects of repeat single oral doses of IP2015 on male subjects with erectile dysfunction (ED) on ability to develop and maintain an erection, as well as safety and tolerability of single oral doses of IP2015, effects on penile rigidity and tumescence during visual stimulation, effects on sperm count and motility, and any possible relationship between plasma levels of IP2015, its efficacy and safety.
(§2) 130 subjects were divided into 3 groups upon which the study was conducted in parallel. Each subject was dosed on four occasions with either 5 mg IP2015, 10 mg IP2015 or matched placebo. In each group, subjects were randomized evenly to each of the three study treatments and received the same treatment at each visit.
The study lasted approximately 8 weeks and consisted of the following: • A screening visit (up to 21 days prior to the baseline visit) • A baseline visit (Day -7) • Outpatient visits on Week 1 (Day 1), Week 2, Week 3 and Week 4 • A follow-up visit a minimum of 7 to 10 days after their final dose.
(§3) On Day -7, and at Week 1 (Day 1), Week 2, Week 3, Week 4 and Follow-up visits, all groups were asked to complete the IIEF-15 questionnaire. Group 2 was asked to complete a Visual Stimulation Assessment using a RigiScan Plus Monitor on Day -7, Week 1 (Day 1) and Week 4. Group 2 was also required to provide blood samples for pharmacokinetic assessment on Week 1 (Day 1) and Week 4. Group 3 was required to provide semen samples on Day -7 and Week 4.
The patients were otherwise healthy male subjects with ED as determined from an IIEF-5 score of ≤16, with a body mass index of 18 to 35 kg/m^2 (inclusive), of any ethnic origin. Subjects were aged between 18 to 59 years, inclusive.
(§4) There were three potential study treatments of 5 mg IP2015, 10 mg IP2015 or matched placebo. In each group, subjects were randomized evenly to each of the three study treatments and received the same treatment on each visit. IP2015 or matched placebo was administered once in the morning of Week 1 (Day 1), Week 2, Week 3, and Week 4 as an oral solution in the fasted state. The dose was taken with 240 mL of water at room temperature. Subjects had fasted 2 hours prior to dosing until 4 hours post-dose. Water was allowed ad libitum except for 1 hour before and 1 hour after dosing.
(§5) Efficacy was assessed through the International Index of Erectile Function (IIEF)-15 questionnaire. The change from baseline in responses to questions of the IIEF-15 questionnaire, including questions regarding erectile function, orgasmic function, sexual desire, intercourse satisfaction and overall satisfaction domain scores, was determined at different time points of the study. RigiScan assessments during the stimulus assessment, and sperm count and motility by semen sample collection was used for efficacy evaluation. Safety was assessed through AE reporting, 12-lead ECG, vital signs, physical examinations, and clinical laboratory evaluations. Pharmacokinetics was assessed by blood sampling.
The results are means±SE. The statistical differences were performed with Mixed Model Repeated Measures (MMRM).

[2] = Solubility of IP2015 in aqueous and non-aqueous vehicles (visual, HPLC content); format: physicochemical
Description: Solubility of IP2015 was determined in both aqueous and non-aqueous vehicles. In non-aqueous liquids, the solubility was visually confirmed in progressive dilutions. The solubility of IP2015 in pH specific aqueous solutions was evaluated, the solubility was visually confirmed, and the content was evaluated by HPLC. Table 2. Solubility of IP2015 in different media.

[3] = tested on: male subjects with erectile dysfunction (ED); experiment: Phase IIb study in erectile dysfunction, treatment-emergent adverse events and semen analysis; format: in vivo, humans
From the text: as §1, §2, §3, §4, §5

[4] = 5 mg IP2015 oral solution, overall score, tendency to difference
[5] = pH 5.8 Potassium Phosphate buffer
[6] = pH 6.8 Potassium Phosphate buffer
[7] = pH 7.5 Potassium Phosphate buffer

COc1cc2ccc(O[C@@H]3C[C@H]4CC[C@@H](C3)N4)cc2oc1=O [IP2015, Exo-7-[(-8-azabicyclo[3.2.1]octan-3-yl)oxy]-3-methoxy-chromen-2-one]
overall response to questions of IIEF-15, p versus baseline ([1]; 5 mg IP2015 oral solution, at follow-up, significant): 0.0046 | overall response to questions of IIEF-15, p versus placebo ([1]; 5 mg IP2015 oral solution, at follow-up, tendency): 0.07 | Q4 in the IIEF-15, overall score, p compared to placebo ([1]; 5 mg IP2015 oral solution, overall score, no difference): 0.44 | overall response to questions of IIEF-15, overall score, p versus baseline ([1]; 5 mg IP2015 oral solution, overall score, significant): 0.0032 | overall response to questions of IIEF-15, overall score, p versus placebo ([1]; 5 mg IP2015 oral solution, overall score, tendency): 0.10 | Q3 in the IIEF-15, overall score, p versus baseline [1, 4]: 0.07 | Q3 in the IIEF-15, overall score, p versus placebo [1, 4]: 0.07 | Q4 in the IIEF-15, overall score, p versus baseline [1, 4]: 0.056 | Q3 in the IIEF-15, p versus baseline ([1]; 5 mg IP2015 oral solution, week 3, MMRM, significant): 0.046 | Q3 in the IIEF-15, p versus placebo ([1]; 5 mg IP2015 oral solution, week 3, change from baseline, MMRM, significant): 0.034 | overall IIEF-15 score, score change ([1]; low dose (5 mg) of IP2015, called clinically significant): 2 | solubility ([2]; 0.1n hcl, pH 1.2 HCl (0.1N)): 0.017 mg/mL (≈ 0.0564 mM) | Inference (Ph.Eur) ([2]; N,N-dimethyl acetamide): Very slightly soluble | Inference (Ph.Eur) ([2]; N-methyl-2-pyrrolidone): Very slightly soluble | solubility ([2]; aqueous solutions across physiological pH): < 1 mg/mL | Inference (Ph.Eur) ([2]; dimethyl sulfoxide): Slightly soluble | solubility ([2]; dimethyl sulfoxide): 5 to 10 mg/mL (≈ 16.6 to 33.2 mM) | Inference (Ph.Eur) ([2]; ethanol): Very slightly soluble | solubility ([2]; ethanol): < 1 mg/mL | Inference (Ph.Eur) ([2]; glycerine): Very slightly soluble | solubility ([2]; glycerine): < 1 mg/mL | solubility ([2]; n,n-dimethyl acetamide): < 1 mg/mL | solubility ([2]; n-methyl-2-pyrrolidone): < 1 mg/mL | Inference (Ph.Eur) ([2]; pH 1.2 HCl (0.1N)): Very slightly soluble | Inference (Ph.Eur) ([2]; pH 3.0 Acetate buffer): Slightly soluble | solubility ([2]; pH 3.0 Acetate buffer): 1.17 mg/mL (≈ 3.89 mM) | Inference (Ph.Eur) ([2]; pH 3.0 Citrate buffer): Very slightly soluble | solubility ([2]; pH 3.0 Citrate buffer): 0.839 mg/mL (≈ 2.78 mM) | Inference (Ph.Eur) ([2]; pH 4.0 Citrate buffer): Very slightly soluble | solubility ([2]; pH 4.0 Citrate buffer): 0.849 mg/mL (≈ 2.82 mM) | Inference (Ph.Eur) ([2]; pH 4.5 Acetate buffer): Very slightly soluble | solubility ([2]; pH 4.5 Acetate buffer): 0.981 mg/mL (≈ 3.26 mM) | Inference (Ph.Eur) [2, 5]: Very slightly soluble | solubility [2, 5]: 0.104 mg/mL (≈ 0.345 mM) | Inference (Ph.Eur) [2, 6]: Very slightly soluble | solubility [2, 6]: 0.146 mg/mL (≈ 0.484 mM) | Inference (Ph.Eur) [2, 7]: Very slightly soluble | solubility [2, 7]: 0.084 mg/mL (≈ 0.279 mM) | Inference (Ph.Eur) ([2]; polyethylene glycol 400): Very slightly soluble | solubility ([2]; polyethylene glycol 400): < 1 mg/mL | Inference (Ph.Eur) ([2]; propylene glycol): Slightly soluble | solubility ([2]; propylene glycol): 1 to 5 mg/mL (≈ 3.32 to 16.6 mM) | Inference (Ph.Eur) ([2]; purified water): Very slightly soluble | solubility ([2]; purified water): 0.738 mg/mL (≈ 2.45 mM) | Any TEAE, figure after the comma ([3]; IP2015 5mg, N=42): 61 | Any TEAE, n (%) ([3]; IP2015 5mg, N=42): 32 (76.2 %) | TEAE Dizziness, figure after the comma ([3]; IP2015 5mg, N=42): 3 | TEAE Dizziness, n (%) ([3]; IP2015 5mg, N=42): 3 (7.1 %) | TEAE Headache, figure after the comma ([3]; IP2015 5mg, N=42): 15 | TEAE Headache, n (%) ([3]; IP2015 5mg, N=42): 11 (26.2 %) | TEAE Mild, figure after the comma ([3]; IP2015 5mg, N=42): 56 | TEAE Mild, n (%) ([3]; IP2015 5mg, N=42): 29 (69.0 %) | TEAE Moderate, figure after the comma ([3]; IP2015 5mg, N=42): 5 | TEAE Moderate, n (%) ([3]; IP2015 5mg, N=42): 3 (7.1%) | TEAE Nausea, figure after the comma ([3]; IP2015 5mg, N=42): 1 | TEAE Nausea, n (%) ([3]; IP2015 5mg, N=42): 1 (2.4 %) | TEAE Related*, figure after the comma ([3]; IP2015 5mg, N=42): 19 | TEAE Related*, n (%) ([3]; IP2015 5mg, N=42): 10 (23.8 %) | TEAE Severe ([3]; IP2015 5mg, N=42): 0 | Any TEAE, figure after the comma ([3]; IP2015 10 mg, N=43): 141 | Any TEAE, n (%) ([3]; IP2015 10 mg, N=43): 34 (79.1 %) | TEAE Dizziness, figure after the comma ([3]; IP2015 10 mg, N=43): 15 | TEAE Dizziness, n (%) ([3]; IP2015 10 mg, N=43): 12 (27.9 %) | TEAE Headache, figure after the comma ([3]; IP2015 10 mg, N=43): 27 | TEAE Headache, n (%) ([3]; IP2015 10 mg, N=43): 16 (37.2 %) | TEAE Mild, figure after the comma ([3]; IP2015 10 mg, N=43): 132 | TEAE Mild, n (%) ([3]; IP2015 10 mg, N=43): 33 (76.7%) | TEAE Moderate, figure after the comma ([3]; IP2015 10 mg, N=43): 9 | TEAE Moderate, n (%) ([3]; IP2015 10 mg, N=43): 7 (16.3%) | TEAE Nausea, figure after the comma ([3]; IP2015 10 mg, N=43): 15 | TEAE Nausea, n (%) ([3]; IP2015 10 mg, N=43): 8 (18.6 %) | TEAE Related*, figure after the comma ([3]; IP2015 10 mg, N=43): 84 | TEAE Related*, n (%) ([3]; IP2015 10 mg, N=43): 23 (53.5 %) | TEAE Severe ([3]; IP2015 10 mg, N=43): 0 | severe side effects ([3]; any of the doses (5 mg, 10 mg)): No severe side effects were observed | Treatment-emergent adverse effects ([3]; low-dose (5 mg)): comparable to the placebo group
